Positions count from the first letter of the chain named. Numbers in names are those of the source. One block for each molecule: values may come before it. Non-standard residues stand in square brackets, D forms with d. Residues, ends and D or L forms follow the SMILES beside them. No end group written: not given here. pY = N[C@@H](Cc1ccc(OP(=O)(O)O)cc1)C(=O)O
Experiments:
talin F3 = biological target: T1, talin F3 (Mus musculus, UniProt P26039); experiment: 1H-15N HSQC NMR titration of talin F3 with peptides; type: binding; conditions: for perturbation of contact residues in the MP region: mutant chimeric peptides added to wild-type talin F3, MD site binding unchanged
T1 construct: labeled talin F3 domain was expressed and purified as described previously (de Pereda et al., 2005); made in house
T1 sequence (P26039 309-405 limits assumed): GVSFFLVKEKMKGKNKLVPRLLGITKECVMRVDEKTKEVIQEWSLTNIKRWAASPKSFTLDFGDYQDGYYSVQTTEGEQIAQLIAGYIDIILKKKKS
Protocol: (§1) Talin F3 L325R and Q381V mutants were titrated with the original β3/PIPKIγ chimera, while the effect of peptide mutations (F727A and F730A) was assessed using wild-type talin F3.
We set out to obtain a structural explanation for the unusual ability of the talin PTB domain to activate integrins. An initial exploration of the interactions was carried out by adding various tail-derived β3-integrin peptides to the F3 sub-domain of talin, while monitoring the chemical shift perturbations in ^1H-^15N HSQC NMR spectra. The peptide sequences and the nomenclature used are set out in FIG. 1A. The MP peptide corresponds to the N-terminal region of the cytoplasmic β-tail. A peptide comprised of the β-tail region previously visualized in the crystal structure (Garcia-Alvarez et al., 2003), is denoted MD; this peptide primarily causes chemical shift perturbations in strand S5 (de Pereda et al., 2005).
(§2) ^1H-^15N-HSQC titrations were performed as previously described (de Pereda et al., 2005). Weighted shifts (Δδ(HN,N)) were calculated using the equation: Δδ(HN,N)=((ΔδHNWHN)^2+(ΔδNWN)^2)^1/2, where WHN and WN are weighting factors for the HN and N shifts respectively (WHN=1, WN=0.154) (Ayed et al., 2001) and Δδ=δbound−δfree. Talin F3 domains in complex with slow-exchanging peptides, as well as mutant F3 domains, were assigned by correlation to the wild-type talin F3 assignments (de Pereda et al., 2005) and confirmed using 3D gradient-enhanced [^1H-^15N]-NOESY-HSQC (τm=100 ms) spectra alone, or in combination with [^1H-^15N]-TOCSY-HSQC (τm=70 ms) spectra. ^13CO, ^13Cα and ^13Cβ shifts were obtained using a series of 2D ^1H-^15N-^13C experiments (Bersch et al., 2003). Bound peptide shifts were obtained using U—^15N,^2H F3 and unlabeled chimeric peptide (1.3:1). Both bound and unbound chimeric peptide shifts were assigned using 2D NOESY, TOCSY and COSY spectra. DOK PTB domain assignments were obtained previously (unpublished).

[1] = Solubility of peptide at the concentrations used for NMR; type: physicochemical
Description: NMR studies of the interaction with full-length β3 cytoplasmic tail were more challenging. The off-rates of the complex correspond to an ‘intermediate exchange’ regime, with peaks broadening and disappearing rather than changing position. It was, however, possible to define perturbed residues by plotting the percentage decrease in peak height upon addition of the peptide (FIGS. 1D and 8). The perturbed residues are essentially the sum of those affected by the MD peptide and the MP peptide (FIGS. 1 and 8). The β3 tail/talin F3 interactions can thus be considered in two parts, one corresponding to the previously defined interaction at the MD-site, the other corresponding to the MP-site. […] This, together with exchange broadening of lines, made the β3 tail an unsuitable ligand for studying the structure of the talin-integrin complex by NMR at atomic resolution.

β3/PIPKIγ chimera = experiment: 1H-15N HSQC NMR titration of talin F3 mutants with chimeric peptide; conditions: talin F3 mutants titrated with the original β3/PIPKIγ chimera; MD site binding unchanged
β3/PIPKIγ chimera, sequence (as listed by the source, change not shown): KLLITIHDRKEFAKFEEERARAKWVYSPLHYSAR
Protocol: as §1
Mutations to the contact residues in talin F3 (L325R, S365D, S379R, or Q381V) were also made to see if they disrupted the F3/MP interaction.
as §2

Talin F3 W359A = biological target: T2, Talin F3 W359A (Mus musculus, UniProt P26039, W359A); experiment: Isothermal titration calorimetry, chimeric peptide binding to talin F3 mutant; conditions: ITC, relative to wild type talin F3
T2 construct: injected into the cell containing wildtype or mutant talin F3 domain; made in house
T2 sequence (P26039 309-405 W359A limits assumed): as the sequence (P26039 309-405 limits assumed) above, with W51A counted along it
Protocol: Peptide concentrations were typically at 150 to 300 μM while protein concentrations ranged from 25 to 50 μM. For the W359A mutant, the protein concentration was 50 μM and the peptide concentration was 1 mM. Prior to ITC titrations, the peptides and proteins were in buffer consisting of 200 mM Tris, 300 mM NaCl, pH 7.5. All experiments were conducted at 23 degrees Celsius. […] The bottom panel is the binding curve, calculated using the software program Origin.
Thermodynamic parameters for the binding of WT and mutant talin F3 to the β3 chimeric peptides were measured using isothermal titration calorimetry (Table 2, FIG. 12). In general, mutations that disrupt the MP site, either in the β-tail or talin F3, have relatively little effect on the Kd values (Table 2). This probably arises because of a balance between enthalpy gain and entropy loss, consistent with stabilization of the MP helix on talin binding in the wild-type but not mutant structures. In sharp contrast, the talin (W359A) mutant, which inhibits binding of the MD-site of the β3 tail, reduced the affinity ˜1000 fold, similar to the effect of mutations in the NPxY region of the integrin tail, which abrogate MD binding (Ulmer et al., 2003).
Isothermal titration calorimetry (ITC) was performed on a VP-ITC calorimeter (Microcal, Northampton, Mass.). […] Experimental data were analyzed using Microcal Origin software.

perturbation of contact residues in the MP region (talin F3): markedly reduced
Molecule: CC[C@H](C)[C@H](NC(=O)[C@H](CC(C)C)NC(=O)[C@H](CC(C)C)NC(=O)[C@H](CCCCN)NC(=O)[C@@H](N)CCCCN)C(=O)N[C@H](C(=O)N[C@H](C(=O)N[C@@H](Cc1c[nH]cn1)C(=O)N[C@@H](CC(=O)O)C(=O)N[C@@H](CCCNC(=N)N)C(=O)N[C@@H](CCCCN)C(=O)N[C@@H](CCC(=O)O)C(=O)N[C@@H](C)C(=O)N[C@@H](C)C(=O)N[C@@H](CCCCN)C(=O)N[C@@H](Cc1ccccc1)C(=O)N[C@@H](CCC(=O)O)C(=O)N[C@@H](CCC(=O)O)C(=O)N[C@@H](CCC(=O)O)C(=O)N[C@@H](CCCNC(=N)N)C(=O)N[C@@H](C)C(=O)N[C@@H](CCCNC(=N)N)C(=O)N[C@@H](C)C(=O)N[C@@H](CCCCN)C(=O)N[C@@H](Cc1c[nH]c2ccccc12)C(=O)N[C@H](C(=O)N[C@@H](Cc1ccc(OP(=O)(O)O)cc1)C(=O)N[C@@H](CO)C(=O)N1CCC[C@H]1C(=O)N[C@@H](CC(C)C)C(=O)N[C@@H](Cc1c[nH]cn1)C(=O)N[C@@H](Cc1ccc(O)cc1)C(=O)N[C@@H](CO)C(=O)N[C@@H](C)C(=O)N[C@@H](CCCNC(=N)N)C(=O)O)C(C)C)[C@@H](C)CC)[C@@H](C)O [β3 chimera F727A] (H-KKLLITIHDRKEAAKFEEERARAKWV[pY]SPLHYSAR-OH; N-terminus and C-terminus assumed)

perturbation of contact residues in the MP region (talin F3): undetectable
Molecule: CC[C@H](C)[C@H](NC(=O)[C@H](CC(C)C)NC(=O)[C@H](CC(C)C)NC(=O)[C@H](CCCCN)NC(=O)[C@@H](N)CCCCN)C(=O)N[C@H](C(=O)N[C@H](C(=O)N[C@@H](Cc1c[nH]cn1)C(=O)N[C@@H](CC(=O)O)C(=O)N[C@@H](CCCNC(=N)N)C(=O)N[C@@H](CCCCN)C(=O)N[C@@H](CCC(=O)O)C(=O)N[C@@H](Cc1ccccc1)C(=O)N[C@@H](C)C(=O)N[C@@H](CCCCN)C(=O)N[C@@H](C)C(=O)N[C@@H](CCC(=O)O)C(=O)N[C@@H](CCC(=O)O)C(=O)N[C@@H](CCC(=O)O)C(=O)N[C@@H](CCCNC(=N)N)C(=O)N[C@@H](C)C(=O)N[C@@H](CCCNC(=N)N)C(=O)N[C@@H](C)C(=O)N[C@@H](CCCCN)C(=O)N[C@@H](Cc1c[nH]c2ccccc12)C(=O)N[C@H](C(=O)N[C@@H](Cc1ccc(OP(=O)(O)O)cc1)C(=O)N[C@@H](CO)C(=O)N1CCC[C@H]1C(=O)N[C@@H](CC(C)C)C(=O)N[C@@H](Cc1c[nH]cn1)C(=O)N[C@@H](Cc1ccc(O)cc1)C(=O)N[C@@H](CO)C(=O)N[C@@H](C)C(=O)N[C@@H](CCCNC(=N)N)C(=O)O)C(C)C)[C@@H](C)CC)[C@@H](C)O [β3 chimera F730A] (H-KKLLITIHDRKEFAKAEEERARAKWV[pY]SPLHYSAR-OH; N-terminus and C-terminus assumed)

solubility [1]: limited solubility
Molecule: KLLITIHDRKEFAKFEEERARAKWDTANNPLYKEATSTFTNITYRGT [full-length β3 tail]

More lines, now with the values behind:

Molecule: CC[C@H](C)[C@H](NC(=O)[C@H](CC(C)C)NC(=O)[C@H](CC(C)C)NC(=O)[C@H](CCCCN)NC(=O)[C@@H](N)CCCCN)C(=O)N[C@H](C(=O)N[C@H](C(=O)N[C@@H](Cc1c[nH]cn1)C(=O)N[C@@H](CC(=O)O)C(=O)N[C@@H](CCCNC(=N)N)C(=O)N[C@@H](CCCCN)C(=O)N[C@@H](CCC(=O)O)C(=O)N[C@@H](Cc1ccccc1)C(=O)N[C@@H](C)C(=O)N[C@@H](CCCCN)C(=O)N[C@@H](Cc1ccccc1)C(=O)N[C@@H](CCC(=O)O)C(=O)N[C@@H](CCC(=O)O)C(=O)N[C@@H](CCC(=O)O)C(=O)N[C@@H](CCCNC(=N)N)C(=O)N[C@@H](C)C(=O)N[C@@H](CCCNC(=N)N)C(=O)N[C@@H](C)C(=O)N[C@@H](CCCCN)C(=O)N[C@@H](Cc1c[nH]c2ccccc12)C(=O)N[C@H](C(=O)N[C@@H](Cc1ccc(OP(=O)(O)O)cc1)C(=O)N[C@@H](CO)C(=O)N1CCC[C@H]1C(=O)N[C@@H](CC(C)C)C(=O)N[C@@H](Cc1c[nH]cn1)C(=O)N[C@@H](Cc1ccc(O)cc1)C(=O)N[C@@H](CO)C(=O)N[C@@H](C)C(=O)N[C@@H](CCCNC(=N)N)C(=O)O)C(C)C)[C@@H](C)CC)[C@@H](C)O [β3 chimera] (H-KKLLITIHDRKEFAKFEEERARAKWV[pY]SPLHYSAR-OH; N-terminus and C-terminus assumed)
binding to talin (NMR) (talin F3; 25° C.): bind to talin and form a tight, highly soluble 1:1 complex

B1: F3-Q381V: talin F3 domain mutant Q381V (protein)
chain: GVSFFLVKEKMKGKNKLVPRLLGITKECVMRVDEKTKEVIQEWSLTNIKRWAASPKSFTLDFGDYQDGYYSVVTTEGEQIAQLIAGYIDIILKKKKS
perturbation of contact residues in the MP region (β3/PIPKIγ chimera): markedly reduced

B2: F3-L325R: talin F3 domain mutant L325R (protein)
chain: B1 chain with L17R, V73Q
perturbation of contact residues in the MP region (β3/PIPKIγ chimera): undetectable

B3: talin (W359A): talin F3 domain mutant W359A, inhibits binding of the MD-site of the β3 tail (protein)
chain: B1 chain with W51A, V73Q
reduction of affinity for the β3 chimeric peptide (Talin F3 W359A): ~1000 fold
